In patent US20040143004A1, “Metronomic dosing of taxanes” (priority 2004, published 2004):

Test system: endothelial cells in MATRIGEL plugs
Description: LX1 human lung tumor fragments that were maintained by serial subcutaneous passage in athymic (nu/nu) Balb/c mice were implanted subcutaneously as small fragments approximately 0.1 mm^3 in size. Tumor volume doubling time for this tumor in these studies was 2.8 days. When tumors reached the size range of 150-200 mm^3, liquid [sequence] was injected subcutaneously on the side contralateral to the tumor. Treatment was initiated 24 hours later at varying doses and schedules. Prior to implanting, [sequence] is prepared by placing solidified [sequence] on ice overnight at 4 C. in accordance with the method described by Passiniti et al. (Lab. Invest. 1992 67:519-28). At the liquid phase and while on ice, VEGF and bFGF (Peprotech, Inc. Rocky Hill, N.J.) is added to the [sequence] at final respective concentrations of 75 ng/ml and 300 ng/ml. […] These plugs were then processed for paraffin embedding and sectioned at 5 μm thickness followed by staining with hematoxylin and eosin prior to quantitative analysis. The number of endothelial cells in plugs was quantitated using the IMAGEPRO PLUS software (Media Cybernetics, Inc., Silver Spring, Md.) at a magnification of 20×. […]
Angiogenesis is evaluated in these plugs as the number of endothelial cells migrating into plugs from compound treated groups relative to the vehicle treated group.

`COC(=O)O[C@@]12CO[C@@H]1C[C@H](O)[C@@]1(C)C(=O)[C@H](OC(C)=O)C3=C(C)[C@@H](OC(=O)[C@H](O)[C@@H](NC(=O)OC(C)(C)C)C(C)(C)C)C[C@@](O)([C@@H](OC(=O)c4ccccc4)[C@H]21)C3(C)C` [Formula I, 3′-tert-butyl-3′-N-tert-butyloxycarbonyl-4-deacetyl-3′-dephenyl-3′-N-debenzoyl-4-O-methoxycarbonyl-paclitaxel] was tested, and the “dose below MTD at which anti-angiogenic effects are still observed in vivo” value (fold lower than the maximum tolerated dose) was “approximately 13 fold” and the “maximum tolerated dose (MTD)” value (mice, q2dx5 schedule) was 60 mg/kg.
